Test system: THP-1 Blue, Raw Blue, HEK-blue hTLR3, HEK-Blue hTLR4, HEK-Blue hNOD2
Assay: Activation of innate immune response in reporter cell lines covering TLR and NOD2 expression
Type: cell-based
Conditions: 5 cell lines; 3 PPQ lots; highest drug substance concentration tested 10 μg/mL
Protocol: Method development, qualification, and testing for activation of innate immune response was performed. The innate immune assays performed compared 3 PPQ lots. The work was conducted using 5 cell lines to cover TLR and NOD2 expression (THP-1 Blue, Raw Blue, HEK-blue hTLR3, HEK-Blue hTLR4, HEK-Blue hNOD2). […] The highest drug substance concentration tested was 10 μg/mL. A dose of the sterile preparation of purified corticotropin at 80 U is, equivalent to approximately 1 mg of drug substance per total body weight of subject.

Row | Molecule | dose response in innate immune assays
1 | CCCc1nc2c(N)nc3ccccc3c2s1 [CL075] | robust dose responses
2 | CC(=O)N[C@@H]1[C@@H](O[C@H](C)C(=O)N[C@@H](C)C(=O)N[C@H](CCC(=O)O)C(N)=O)[C@H](O)[C@@H](CO)O[C@H]1O [MDP] | robust dose responses
3 | FSL-1 | robust dose responses

Reference: US12440542B1, “Kits for preparing and delivering purified corticotropin” (ANI Pharmaceuticals, Inc., priority 2022, dated 2025)
